Experimental data taken from US10670605B2, “Cysteine reactive probes and uses thereof” (The Scripps Research Institute, priority 2015, dated 2020).
“And” between values parts separate entries of the source, which are not always exact repeats. Equal values may be shown once.

How the values were obtained:
Experiment in all cases: Competitive isoTOP-ABPP, cell lysates
Assay type in all cases: binding
NR3C1 C302 (P04150) = target: T1, NR3C1 C302 (P04150) (Homo sapiens, UniProt P04150); details: for isoTOP-ABPP reactivity profile ratio, P04150_C302 / isoTOP-ABPP reactivity ratio, P04150_C302: 500 μm; for isoTOP-ABPP ratio, P04150_C302 / R value (DMSO/fragment): 500 μM; for isoTOP-ABPP ratio, P04150_C302: invitro; for R value (DMSO/fragment): in vitro, MDA-MB-231
T1 sequence (P04150 1-777): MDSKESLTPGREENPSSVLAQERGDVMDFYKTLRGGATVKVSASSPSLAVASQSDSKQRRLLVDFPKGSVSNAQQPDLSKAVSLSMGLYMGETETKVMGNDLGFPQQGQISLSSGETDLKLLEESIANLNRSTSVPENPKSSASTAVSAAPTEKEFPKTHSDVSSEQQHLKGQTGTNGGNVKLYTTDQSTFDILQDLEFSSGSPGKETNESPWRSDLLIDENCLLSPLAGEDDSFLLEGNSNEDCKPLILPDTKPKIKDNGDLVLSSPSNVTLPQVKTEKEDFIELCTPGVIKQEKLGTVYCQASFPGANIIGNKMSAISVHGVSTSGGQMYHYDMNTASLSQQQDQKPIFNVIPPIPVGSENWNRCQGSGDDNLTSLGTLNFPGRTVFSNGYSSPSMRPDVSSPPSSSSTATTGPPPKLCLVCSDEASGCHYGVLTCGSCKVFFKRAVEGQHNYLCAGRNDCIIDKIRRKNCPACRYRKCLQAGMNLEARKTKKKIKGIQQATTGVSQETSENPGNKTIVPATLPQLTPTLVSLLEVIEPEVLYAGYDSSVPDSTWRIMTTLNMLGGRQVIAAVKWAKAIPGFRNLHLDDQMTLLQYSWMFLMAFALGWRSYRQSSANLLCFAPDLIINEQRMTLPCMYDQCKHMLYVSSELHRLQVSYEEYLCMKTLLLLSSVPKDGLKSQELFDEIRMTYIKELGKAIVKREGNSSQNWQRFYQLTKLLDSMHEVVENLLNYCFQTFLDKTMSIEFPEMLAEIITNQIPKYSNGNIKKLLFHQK

CDK5 C157 (Q00535) = CDK5 C157 (Q00535) (Homo sapiens, UniProt Q00535); details: for isoTOP-ABPP reactivity profile ratio, Q00535_C157 / isoTOP-ABPP reactivity ratio, Q00535_C157: 500 μm
Chain of CDK5 C157 (Q00535) (Q00535 whole entry, the tested form may be a part): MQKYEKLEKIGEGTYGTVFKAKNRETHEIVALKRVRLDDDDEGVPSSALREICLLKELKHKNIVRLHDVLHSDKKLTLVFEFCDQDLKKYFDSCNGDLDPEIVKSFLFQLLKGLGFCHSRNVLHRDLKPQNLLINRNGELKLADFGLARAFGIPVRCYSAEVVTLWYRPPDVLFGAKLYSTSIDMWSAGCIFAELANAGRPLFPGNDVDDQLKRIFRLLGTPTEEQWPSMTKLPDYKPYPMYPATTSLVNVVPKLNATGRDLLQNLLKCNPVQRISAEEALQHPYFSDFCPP

USP28 C171 (Q96RU2) = target: T2, USP28 C171 (Q96RU2) (Homo sapiens, UniProt Q96RU2); details: for isoTOP-ABPP ratio, Q96RU2_C171 / R value (DMSO/fragment): 500 μM, invitro
T2 sequence (Q96RU2 1-1077): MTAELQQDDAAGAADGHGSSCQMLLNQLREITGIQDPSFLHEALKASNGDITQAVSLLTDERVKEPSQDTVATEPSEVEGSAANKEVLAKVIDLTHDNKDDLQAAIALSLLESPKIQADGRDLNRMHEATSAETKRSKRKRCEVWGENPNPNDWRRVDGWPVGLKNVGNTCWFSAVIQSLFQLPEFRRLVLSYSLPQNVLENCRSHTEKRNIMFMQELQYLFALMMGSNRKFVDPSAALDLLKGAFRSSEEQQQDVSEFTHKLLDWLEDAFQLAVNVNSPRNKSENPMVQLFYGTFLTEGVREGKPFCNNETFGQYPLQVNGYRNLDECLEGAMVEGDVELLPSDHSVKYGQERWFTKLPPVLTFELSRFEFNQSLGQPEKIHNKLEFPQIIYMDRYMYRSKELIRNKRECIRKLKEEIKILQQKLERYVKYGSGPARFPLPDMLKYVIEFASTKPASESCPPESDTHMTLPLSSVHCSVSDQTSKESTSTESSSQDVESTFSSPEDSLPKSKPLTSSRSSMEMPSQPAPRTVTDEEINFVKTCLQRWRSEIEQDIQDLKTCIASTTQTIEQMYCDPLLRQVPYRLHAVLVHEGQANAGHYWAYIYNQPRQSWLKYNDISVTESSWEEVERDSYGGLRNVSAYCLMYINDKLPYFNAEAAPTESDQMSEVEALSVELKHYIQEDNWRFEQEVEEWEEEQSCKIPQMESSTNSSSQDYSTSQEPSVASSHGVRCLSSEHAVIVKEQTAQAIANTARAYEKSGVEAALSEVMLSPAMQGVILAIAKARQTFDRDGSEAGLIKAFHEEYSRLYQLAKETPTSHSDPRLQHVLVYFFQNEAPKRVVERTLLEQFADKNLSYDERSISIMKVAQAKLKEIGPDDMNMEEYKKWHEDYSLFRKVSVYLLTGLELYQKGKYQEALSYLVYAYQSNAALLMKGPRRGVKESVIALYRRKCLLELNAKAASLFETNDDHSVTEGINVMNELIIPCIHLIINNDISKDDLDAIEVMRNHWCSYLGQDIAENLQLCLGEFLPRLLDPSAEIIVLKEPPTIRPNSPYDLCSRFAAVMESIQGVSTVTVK

C=CC(=O)N(Cc1cccnc1)c1ccc(Oc2ccccc2)c(C(F)(F)F)c1 [compound 15]
isoTOP-ABPP ratio (reactivity profile), P04150_C302 (NR3C1 C302 (P04150); 500 μm in-vitro ramos): 0.9

COc1cc(NC(=O)CCl)cc(OC)c1 [compound 43]
isoTOP-ABPP reactivity profile ratio, Q00535_C157 (CDK5 C157 (Q00535); in-vitro_ramos): 1.2
isoTOP-ABPP reactivity profile ratio, P04150_C302 (NR3C1 C302 (P04150); in-vitro_ramos_231): 1.5

CC(C)CCOCCNC(=O)CCl [compound 27]
isoTOP-ABPP ratio (reactivity profile), Q00535_C157 (CDK5 C157 (Q00535); 500 μm in-vitro ramos): 1.0
isoTOP-ABPP ratio (reactivity profile), P04150_C302 (NR3C1 C302 (P04150); 500 μm in-vitro ramos_231): 1.3 and 1.0
isoTOP-ABPP ratio (reactivity profile), Q96RU2_C171 (USP28 C171 (Q96RU2); 500 μm in-vitro ramos_231): 0.9 and 1.2

C=CC(=O)N1CCC(c2noc3ccc(F)cc23)CC1 [compound 37]
isoTOP-ABPP reactivity ratio, P04150_C302 (NR3C1 C302 (P04150); in-vitro_ramos): 0.9

COc1ccc(C2CC(c3cccs3)=NN2C(=O)CCl)cc1 (stereo not drawn) [compound 4]
R value (DMSO/fragment) (CDK5 C157 (Q00535); 250 μM, in vitro, Ramos): 1.3

O=C(/C=C/c1ccccc1)Nc1cc(C(F)(F)F)cc(C(F)(F)F)c1 [compound 26]
isoTOP-ABPP ratio (reactivity profile), Q00535_C157 (CDK5 C157 (Q00535); 500 μm in-vitro ramos): 0.9

O=C(CCl)Nc1cccc2ncccc12 [compound 51]
isoTOP-ABPP reactivity profile ratio, Q00535_C157 (CDK5 C157 (Q00535); in-vitro_ramos): 1.0

COc1ccccc1OCCNC(=O)CCl [compound 28]
isoTOP-ABPP ratio (reactivity profile), Q00535_C157 (CDK5 C157 (Q00535); 500 μm in-vitro ramos): 1.0
isoTOP-ABPP ratio (reactivity profile), Q00535_C157 (CDK5 C157 (Q00535); 500 μm in-vitro ramos_231): 0.9

O=C(CCl)N1CCN(S(=O)(=O)c2ccccc2F)CC1 [compound 10]
isoTOP-ABPP ratio, P04150_C302 (NR3C1 C302 (P04150); 231): 4.1
isoTOP-ABPP ratio, Q96RU2_C171 (USP28 C171 (Q96RU2); 231): 1.4

O=C(CCl)Nc1ccccc1C1CCCCCC1 [compound 35]
isoTOP-ABPP reactivity ratio, P04150_C302 (NR3C1 C302 (P04150); in-vitro_ramos): 0.9

C=CC(=O)N(c1ccccc1)C1CCCCC1 [compound 46]
isoTOP-ABPP reactivity profile ratio, Q96RU2_C171 (USP28 C171 (Q96RU2); 500 μm, in-vitro_ramos_231): 0.9

Cc1ccc(C=C(C#N)C(=O)NCCN2CCOCC2)cc1 [compound 41]
isoTOP-ABPP reactivity ratio, Q00535_C157 (CDK5 C157 (Q00535); in-vitro_ramos_231): 1.5

O=C(CCl)N(Cc1ccc(F)cc1)C12CC3CC(CC(C3)C1)C2 [compound 34]
isoTOP-ABPP reactivity ratio, Q00535_C157 (CDK5 C157 (Q00535); in-vitro_ramos_231): 0.7

CC(C)(C)c1cc(NC(=O)CCl)on1 [compound 32]
isoTOP-ABPP reactivity ratio, Q00535_C157 (CDK5 C157 (Q00535); in-vitro_ramos): 1.7
isoTOP-ABPP reactivity ratio, Q00535_C157 (CDK5 C157 (Q00535); in-vitro_ramos_231): 1.7

C=CC(=O)N(c1ccccc1)c1ccc(Br)cc1 [compound 5]
isoTOP-ABPP ratio, Q00535_C157 (CDK5 C157 (Q00535); 500 μM, invitro, ramos): 20.0

O=C(CCl)Nc1cc(C(F)(F)F)cc(C(F)(F)F)c1 [compound 3]
R value (DMSO/fragment) (CDK5 C157 (Q00535); 500 μM, invitro, ramos): 20.0
R value (DMSO/fragment) (NR3C1 C302 (P04150)): 7.6
R value (DMSO/fragment) (USP28 C171 (Q96RU2); ramos): 1.7

COc1ccc2c(c1)CCCN2C(=O)CCl [compound 2]
R value (DMSO/fragment) (CDK5 C157 (Q00535); 500 μM, invitro, ramos): 3.2
R value (DMSO/fragment) (NR3C1 C302 (P04150)): 2.3
R value (DMSO/fragment) (USP28 C171 (Q96RU2); ramos): 1.1

N#C/C(=C\c1cc(C(F)(F)F)cc(C(F)(F)F)c1)C(N)=O [compound 23]
isoTOP-ABPP ratio (reactivity profile), Q00535_C157 (CDK5 C157 (Q00535); 500 μm in-vitro ramos): 2.8
isoTOP-ABPP ratio (reactivity profile), P04150_C302 (NR3C1 C302 (P04150); 500 μm in-vitro ramos): 4.7
isoTOP-ABPP ratio (reactivity profile), Q96RU2_C171 (USP28 C171 (Q96RU2); 500 μm in-vitro ramos): 1.2

C=CC(=O)N1CCC(Cc2ccccc2)CC1 [compound 53]
isoTOP-ABPP reactivity profile ratio, Q00535_C157 (CDK5 C157 (Q00535); in-vitro_ramos): 0.8
isoTOP-ABPP reactivity profile ratio, Q00535_C157 (CDK5 C157 (Q00535); in-vitro_ramos_231): 1.2

C=CC(=O)Nc1cc(F)c(N2CCN(C(=O)OC(C)(C)C)CC2)c(F)c1 [compound 38]
isoTOP-ABPP reactivity ratio, Q00535_C157 (CDK5 C157 (Q00535); in-vitro_ramos_231): 0.9
isoTOP-ABPP reactivity ratio, Q96RU2_C171 (USP28 C171 (Q96RU2); 500 μm, in-vitro_ramos_231): 3.3

O=C(CCl)NC(=O)NC12CC3CC(CC(C3)C1)C2 [compound 12]
isoTOP-ABPP ratio, Q00535_C157 (CDK5 C157 (Q00535); 500 μM, invitro, ramos): 1.0
isoTOP-ABPP ratio, P04150_C302 (NR3C1 C302 (P04150); ramos): 1.3

C=CC(=O)N(Cc1cccnc1)c1cc(C(F)(F)F)cc(C(F)(F)F)c1 [compound 31]
isoTOP-ABPP reactivity ratio, Q00535_C157 (CDK5 C157 (Q00535); in-vitro_ramos): 1.1

Cn1cc(S(=O)(=O)N2CCOCC2)cc1C(=O)NC(=O)CCl [compound 11]
isoTOP-ABPP ratio, Q00535_C157 (CDK5 C157 (Q00535); 500 μM, invitro, ramos): 1.3
isoTOP-ABPP ratio, P04150_C302 (NR3C1 C302 (P04150); ramos): 1.5
isoTOP-ABPP ratio, Q96RU2_C171 (USP28 C171 (Q96RU2); 231): 20.0

O=C(CCl)NCCc1c[nH]c2ccccc12 [compound 13]
isoTOP-ABPP ratio, Q96RU2_C171 (USP28 C171 (Q96RU2); ramos): 2.4

O=C(CCl)N1CCOCC1 [compound 22]
isoTOP-ABPP ratio (reactivity profile), Q00535_C157 (CDK5 C157 (Q00535); 500 μm in-vitro ramos): 0.9
isoTOP-ABPP ratio (reactivity profile), P04150_C302 (NR3C1 C302 (P04150); 500 μm in-vitro ramos): 0.9

CNS(=O)(=O)C=Cc1ccc2c(ccn2Cc2ccccc2)c1 [compound 6]
isoTOP-ABPP ratio, Q96RU2_C171 (USP28 C171 (Q96RU2); 231): 0.8

O=C(CCl)NC12CC3CC(CC(C3)C1)C2 [compound 21]
isoTOP-ABPP ratio (reactivity profile), Q96RU2_C171 (USP28 C171 (Q96RU2); 500 μm in-vitro ramos_231): 1.1

O=C(CCl)Nc1ccc(-c2ccccc2)cc1 [compound 52]
isoTOP-ABPP reactivity profile ratio, P04150_C302 (NR3C1 C302 (P04150); in-vitro_ramos): 1.8

O=C(CCl)N1CCC(C(O)(c2ccccc2)c2ccccc2)CC1 [compound 20]
isoTOP-ABPP ratio (reactivity profile), Q00535_C157 (CDK5 C157 (Q00535); 500 μm in-vitro ramos): 2.0
isoTOP-ABPP ratio (reactivity profile), Q96RU2_C171 (USP28 C171 (Q96RU2); 500 μm in-vitro ramos): 2.4
